Measurements: patent US11541051B2, “Compositions and methods for treating CDK4/6-mediated cancer” (Icahn School of Medicine at Mount Sinai, priority 2016, dated 2023)

Legend:
Type in all cases: cell-based
CDK4/6 [1] = assay: Characterization of CDK4/6 degraders/disruptors in various breast cancer and melanoma cells (summary, Examples 12 and 13)
Experimental: Specific exemplary abemaciclib-, ribociclib-, and palbociclib-based CDK4/6 degraders/disruptors were characterized in various different breast cancer and melanoma cells (Examples 12 and 13, FIGS. 10-23). […] This efficacy in suppressing CDK4/6 expression and CDK4/6 activity correlated with efficacy in inhibiting cancer cell proliferation.
(§1) Protein concentrations were determined by BCA from cell lysates and equal amounts of protein are loaded to a Bis-Tris 4-12% gel. Gels were run at 80 V for 4 h using 1× running buffer (25 mM Tris, pH 8.3, […] glycine, 0.1% SDS). Proteins were transferred to a nitrocellulose membrane for 2 h at 100 V using transfer buffer (25 mM Tris, pH 8.3, […] glycine, 20% methanol). Ponceau S staining (0.1% Ponceau S, 1% acetic acid) was used to confirm transfer of proteins to the membrane followed by blocking of the membrane for 30 min at room temperature using blocking buffer (5% dry nonfat milk, 0.1% Tween, 0.02% sodium azide in TBS). The blocked membrane is incubated with primary antibodies (1:1000 dilution) in blocking buffer at 4° C. overnight. When primary phosphor-antibodies were used, then the membrane is incubated with 5% BSA instead of milk. The membrane was washed three times, 10 min each, with wash buffer (0.1% Tween in TBS) followed by incubation with secondary HRP conjugated antibody (1:5000 dilution) in 2.5% dry nonfat milk, 0.1% Tween in TBS for 1 h at room temperature. The membrane was washed three times, 10 min each, with wash buffer (0.1% Tween in TBS). Membranes are incubated with ECL for 1 min and proteins are detected after exposure to a blue autoradiographic film.

T47D breast cancer cells = assay: Crystal violet staining (clonogenic assay) of T47D breast cancer cells (Example 13, FIGS. 22, 23); details: 11 days
Experimental: Cells were cultured for 7-11 days in the presence of different compounds. Media with compound was replenished every two days. At the end of the experiment, media was aspirated and viable cells were stained with 0.5% crystal violet dye.

CDK4/6 [2] = assay: Western blot of CDK4/6 and phospho-Rb in T47D breast cancer cells treated with degraders (Example 12, FIGS. 10 B, 17, 19); details: 0.3 or 1 μM, 24 h
Experimental: (§2) Breast cancer cell lines (MCF7, T47D, and ZR-75-1) and melanoma cell lines (A375, SK-MEL-2, SK-MEL-30, and WM1382) were cultured in the presence of DMEM or RPMI supplemented with 10% FBS in the presence of penicillin and streptomycin.
as §1
MCF7 breast cancer cells were treated with 1 or 5 μM XY019-095, XY019-098, XY019-0100, XY019-105A, XY019-105B, XY019-106, or XY019-108 for 24 h, then lysed and immunoblotted with antibodies to CDK4, CDK6, and actin (FIG. 10, panel A). […] T47D breast cancer cells were treated with 0.1, 0.3, 1, 3, 10, or 30 μM XY019-106 for 24 h, then lysed and immunoblotted with antibodies to phospho-Rb (pRB), CDK4, and actin (FIG. 10, panel B).
T47D breast cancer cells (FIG. 17) were treated with 0.3 or 1 μM XY028-140, YX039-48, YX039-123, YX039-56, YX039-124, YX039-65, YX039-147 or YX039-74 for 24 h, then lysed and immunoblotted with antibodies to phospho-Rb (pRb), total Rb, PLK1, cyclin A, CDK4, CDK6, and actin.
T47D breast cancer cells (FIG. 19) were treated with 0.3 or 1 μM XY028-133, YX044-18, YX044-22, XY028-140, YX044-19 or YX044-38 for 24 h, then lysed and immunoblotted with antibodies to phospho-Rb (pRb), total Rb, PLK1, cyclin A, CDK4, CDK6, and actin.

CDK4/6 [3] = assay: Western blot of CDK4, CDK6 and phospho-Rb in A375 melanoma cells treated with degraders (Example 12, FIGS. 12, 13, 16, 18); details: 1 or 3 μM, 24 h
Experimental: as §2, §1
A375 melanoma cells (FIG. 13) were treated with 1 or 3 μM Ribociclib (RB), YX030-126, YX030-108, YX030-107, YX030-086, YX030-085 or XY028-133 for 24 h, then lysed and immunoblotted with antibodies to CDK4, CDK6, cyclin A, PLK1, phospho-Rb (pRb), and actin.
A375 melanoma cells (FIG. 16, panel A) were treated with 0.3 or 1 μM XY028-140, YX039-65, YX039-48, YX039-123, YX039-56, YX039-124 or YX039-147 for 24 h. A375 melanoma cells were treated with 1 or 3 μM XY028-140, YX039-56, YX039-65 or XY028-133 (FIG. 16, panel B). Cells were lysed and immunoblotted with antibodies to phospho-Rb (pRb), total Rb, PLK1, cyclin A, CDK4, CDK6, and actin.
A375 melanoma cells (FIG. 18) were treated with 1 or 3 μM XY028-133, YX044-18, YX044-22, XY028-140, YX044-19 or YX044-38 for 24 h, then lysed and immunoblotted with antibodies to phospho-Rb (pRb), total Rb, PLK1, cyclin A, CDK4, CDK6, and actin.

SMILES | suppression of both CDK4/6 expression and CDK4/6 activity (summary) (CDK4/6 [1]) | further results
CC(=O)c1c(C)c2cnc(Nc3ccc(N4CCN(C(=O)COc5cccc6c5C(=O)N(C5CCC(=O)NC5=O)C6=O)CC4)cn3)nc2n(C2CCCC2)c1=O (centres unmarked) [YX039-48, 4-(2-(4-(6-((6-acetyl-8-cyclopentyl-5-methyl-7-oxo-7,8-dihydropyrido[2,3-d]pyrimidin-2-yl)amino)pyridin-3-yl)piperazin-1-yl)-2-oxoethoxy)-2-(2,6-dioxopiperidin-3-yl)isoindoline-1,3-dione] | especially effective in suppressing both CDK4/6 expression and CDK4/6 activity | 
CC(=O)c1c(C)c2cnc(Nc3ccc(N4CCN(C(=O)CCc5cccc6c5C(=O)N(C5CCC(=O)NC5=O)C6)CC4)cn3)nc2n(C2CCCC2)c1=O (centres unmarked) [YX039-56, 3-(7-(3-(4-(6-((6-acetyl-8-cyclopentyl-5-methyl-7-oxo-7,8-dihydropyrido[2,3-d]pyrimidin-2-yl)amino)pyridin-3-yl)piperazin-1-yl)-3-oxopropyl)-1-oxoisoindolin-2-yl)piperidine-2,6-dione] | especially effective in suppressing both CDK4/6 expression and CDK4/6 activity | inhibition of cancer cell proliferation compared with palbociclib (crystal violet staining) (T47D breast cancer cells; 0.003, 0.01 or 0.03 μM): inhibited cancer cell proliferation more effective that palbociclib at the same concentration; inhibition of cancer cell proliferation compared with palbociclib (crystal violet staining) (T47D breast cancer cells; 0.03, 0.1, 0.3, 1 or 3 μM): inhibited cancer cell proliferation more effective that palbociclib at the same concentration
CC(=O)c1c(C)c2cnc(Nc3ccc(N4CCN(C(=O)CCCCCC(=O)N[C@H](C(=O)N5C[C@H](O)C[C@H]5C(=O)N[C@@H](C)c5ccc(-c6scnc6C)cc5)C(C)(C)C)CC4)cn3)nc2n(C2CCCC2)c1=O [YX044-22, (2S,4R)-1-((S)-2-(7-(4-(6-((6-acetyl-8-cyclopentyl-5-methyl-7-oxo-7,8-dihydropyrido[2,3-d]pyrimidin-2-yl)amino)pyridin-3-yl)piperazin-1-yl)-7-oxoheptanamido)-3,3-dimethylbutanoyl)-4-hydroxy-N-((S)-1-(4-(4-methylthiazol-5-yl)phenyl)ethyl)pyrrolidine-2-carboxamide] |  | efficacy in inhibiting both CDK4/6 expression and CDK4/6 activity (decreased Rb phosphorylation) (CDK4/6 [2]): efficacy of CDK4/6 degraders, particularly XY028-140 and YX044-22 and YX044-19
CC(=O)c1c(C)c2cnc(Nc3ccc(N4CCN(C(=O)CNc5cccc6c5CN(C5CCC(=O)NC5=O)C6=O)CC4)cn3)nc2n(C2CCCC2)c1=O (centres unmarked) [YX039-65, 3-(4-((2-(4-(6-((6-acetyl-8-cyclopentyl-5-methyl-7-oxo-7,8-dihydropyrido[2,3-d]pyrimidin-2-yl)amino)pyridin-3-yl)piperazin-1-yl)-2-oxoethyl)amino)-1-oxoisoindolin-2-yl)piperidine-2,6-dione] | especially effective in suppressing both CDK4/6 expression and CDK4/6 activity | inhibition of cancer cell proliferation compared with palbociclib (crystal violet staining) (T47D breast cancer cells; 0.003, 0.01 or 0.03 μM): inhibited cancer cell proliferation more effective that palbociclib at the same concentration; inhibition of cancer cell proliferation compared with palbociclib (crystal violet staining) (T47D breast cancer cells; 0.03, 0.1, 0.3, 1 or 3 μM): inhibited cancer cell proliferation more effective that palbociclib at the same concentration
CC(=O)c1c(C)c2cnc(Nc3ccc(N4CCN(C(=O)CCc5cccc6c5C(=O)N(C5CCC(=O)NC5=O)C6=O)CC4)cn3)nc2n(C2CCCC2)c1=O (centres unmarked) [YX039-147, 4-(3-(4-(6-((6-acetyl-8-cyclopentyl-5-methyl-7-oxo-7,8-dihydropyrido[2,3-d]pyrimidin-2-yl)amino)pyridin-3-yl)piperazin-1-yl)-3-oxopropyl)-2-(2,6-dioxopiperidin-3-yl)isoindoline-1,3-dione] | especially effective in suppressing both CDK4/6 expression and CDK4/6 activity | 
CC(=O)c1c(C)c2cnc(Nc3ccc(N4CCN(C(=O)CCc5cccc6c5CN(C5CCC(=O)NC5=O)C6=O)CC4)cn3)nc2n(C2CCCC2)c1=O (centres unmarked) [YX039-124, 3-(4-(3-(4-(6-((6-acetyl-8-cyclopentyl-5-methyl-7-oxo-7,8-dihydropyrido[2,3-d]pyrimidin-2-yl)amino)pyridin-3-yl)piperazin-1-yl)-3-oxopropyl)-1-oxoisoindolin-2-yl)piperidine-2,6-dione] | especially effective in suppressing both CDK4/6 expression and CDK4/6 activity | 
CC(=O)c1c(C)c2cnc(Nc3ccc(N4CCCN(C(=O)CCCCCC(=O)N[C@H](C(=O)N5C[C@H](O)C[C@H]5C(=O)NCc5ccc(-c6scnc6C)cc5)C(C)(C)C)CC4)cn3)nc2n(C2CCCC2)c1=O [YX044-18, (2S,4R)-1-((S)-2-(7-(4-(6-((6-acetyl-8-cyclopentyl-5-methyl-7-oxo-7,8-dihydropyrido[2,3-d]pyrimidin-2-yl)amino)pyridin-3-yl)-1,4-diazepan-1-yl)-7-oxoheptanamido)-3,3-dimethylbutanoyl)-4-hydroxy-N-(4-(4-methylthiazol-5-yl)benzyl)pyrrolidine-2-carboxamide] |  | efficacy in inhibiting both CDK4/6 expression and CDK4/6 activity (decreased Rb phosphorylation) (CDK4/6 [3]): efficacy of CDK4/6 degraders, particularly XY028-133 and YX044-18
CC(=O)c1c(C)c2cnc(Nc3ccc(N4CCN(C(=O)CCCCCCNc5cccc6c5C(=O)N(C5CCC(=O)NC5=O)C6=O)CC4)cn3)nc2n(C2CCCC2)c1=O (centres unmarked) [XY028-144, 4-((7-(4-(6-((6-acetyl-8-cyclopentyl-5-methyl-7-oxo-7,8-dihydropyrido[2,3-d]pyrimidin-2-yl)amino)pyridin-3-yl)piperazin-1-yl)-7-oxoheptyl)amino)-2-(2,6-dioxopiperidin-3-yl)isoindoline-1,3-dione] | especially effective in suppressing both CDK4/6 expression and CDK4/6 activity | 
CC(=O)c1c(C)c2cnc(Nc3ccc(N4CCN(C(=O)CCCCC(=O)N[C@H](C(=O)N5C[C@H](O)C[C@H]5C(=O)NCc5ccc(-c6scnc6C)cc5)C(C)(C)C)CC4)cn3)nc2n(C2CCCC2)c1=O [XY028-132, (2S,4R)-1-((S)-2-(6-(4-(6-((6-acetyl-8-cyclopentyl-5-methyl-7-oxo-7,8-dihydropyrido[2,3-d]pyrimidin-2-yl)amino)pyridin-3-yl)piperazin-1-yl)-6-oxohexanamido)-3,3-dimethylbutanoyl)-4-hydroxy-N-(4-(4-methylthiazol-5-yl)benzyl)pyrrolidine-2-carboxamide] | especially effective in suppressing both CDK4/6 expression and CDK4/6 activity | 
Cc1nc2c(F)cc(-c3nc(Nc4ccc(CN5CCN(C(=O)CCCCCCC(=O)Nc6cccc7c6C(=O)N(C6CCC(=O)NC6=O)C7=O)CC5)cn4)ncc3F)cc2n1C(C)C (centres unmarked) [YX26-66, N-(2-(2,6-dioxopiperidin-3-yl)-1,3-dioxoisoindolin-4-yl)-8-(4-((6-((5-fluoro-4-(4-fluoro-1-isopropyl-2-methyl-1H-benzo[d]imidazol-6-yl)pyrimidin-2-yl)amino)pyridin-3-yl)methyl)piperazin-1-yl)-8-oxooctanamide] | especially effective in suppressing both CDK4/6 expression and CDK4/6 activity | 
